Experiments:
Tachykinin NK2 receptor = biological target: T1, Tachykinin NK2 receptor (Homo sapiens, UniProt P21452); assay: Human tachykinin NK2 receptor assay (SR-48968 competition); format: binding; conditions: 10 μM concentration; CHO-K1, competition with SR-48968
T1 construct: expressed in transfected cells; host or cells: CHO-K1
T1 sequence (P21452 1-398): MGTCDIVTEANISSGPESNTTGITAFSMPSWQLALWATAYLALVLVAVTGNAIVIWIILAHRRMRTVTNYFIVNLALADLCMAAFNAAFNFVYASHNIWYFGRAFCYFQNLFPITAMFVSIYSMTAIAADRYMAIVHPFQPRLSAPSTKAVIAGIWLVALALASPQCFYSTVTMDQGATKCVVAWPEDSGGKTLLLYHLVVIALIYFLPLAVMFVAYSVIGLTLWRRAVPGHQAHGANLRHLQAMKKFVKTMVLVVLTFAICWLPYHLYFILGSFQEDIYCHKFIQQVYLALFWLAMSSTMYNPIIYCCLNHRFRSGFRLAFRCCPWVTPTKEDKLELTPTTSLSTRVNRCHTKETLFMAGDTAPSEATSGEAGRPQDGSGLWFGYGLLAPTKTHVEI
Experimental: (§1) All compounds were dissolved in dimethyl sulfoxide (DMSO). Final concentration of the DMSO in all tests was 1% (v/v). Inhibition in all tests is considered preferred if it exceeds 50% at 10 μM concentration (or less).
Tachykinin NK2 receptor is expressed in Chinese hamster ovary cell line, clone K1 (CHO-K1). Substances and radioactive competitor (tritium labelled SR-48968) are incubated with cells in HEPES/NaOH buffer for 90 minutes at 25° C. in the presence of manganese ions. Levels of the bound SR-48968 is measured by scintillation counting, and competition is calculated from the total amount of the bound SR-48968 in treated and control samples. Tachykinin receptors are involved in physiological and pathological processes of inflammation and pain. Tachykinin NK2 has been identified as a target for intervention in asthma, GI disease, irritable bowel syndrome and pancreatitis.

Human ERK1 = biological target: T2, Human ERK1 (Homo sapiens, UniProt P27361); assay: Human protein serine/threonine kinase, ERK1, assay; format: biochemical; conditions: 10 μM
T2 construct: made in house; host or cells: Escherichia coli
Experimental: as §1
Human ERK1 is expressed in Escherichia coli and purified. Compounds are pre-incubated in MOPS/EGTA buffer with pervanadate, DTT and γ-[^32P]-ATP with recombinant enzyme for 15 minutes at 37° C. Substrate (purified myelin basic protein, MBP) is added, followed by incubation at 37° C. for 30 minutes. Enzyme activity is measured by quantitation of [^32P]-MBP and inhibition is calculated from specific radioactivity. ERK1 is a serine/threonine kinase activated in MAPK (mitogen activated kinase) pathway. ERK1 is implicated in a high proportion of human cancers, including Hodgkin disease. ERK1 is involved in processes of cell growth, division and inflammation.

IL-5 = assay: Inhibition of IL-5 production by ConA stimulated mouse splenocytes; format: cell-based; conditions: 25 μM
Experimental: (§2) Spleen cell suspension was obtained from BALB/c mice and lymphocytes separated by gradient density centrifugation on Histopaque 1.083 on 400 g for 30 minutes. They were washed once in medium, counted and their number adjusted as 3×10^5/200 μL/well in 96 flat bottomed culture plate in RPMI supplemented with 10% fetal bovine serum. Cells were stimulated on cytokine production by adding concanavalinA (ConA) at 5 μg/mL final concentration. Unstimulated cells were cultured in medium alone. Stock solution was prepared out of testing compounds as 10 mM in DMSO. Final concentrations made in cell culture medium were tested when they had been added together with ConA. After 72 hours incubation period cell culture supernatants were collected. In each sample IL-4, IL-5, IL-10 and IFNγ were detected and quantified using enzyme linked immunosorbent assay (ELISA) specific for pointed cytokines (R&D Systems).
(§3) To calculate results, standard curve was made out of measured OD values for recombinant protein in known concentrations. Cytokine content in unknown samples was calculated out of OD values extrapolated from the standard curve.
(§4) Percentage of inhibition is calculated using formula:
(§5) % Inhibition=(1−cytokine concentration of sample/cytokine concentration of positive control)×100.

CD1 mice = assay: PMA induced ear oedema in CD1 mice; format: in vivo, mouse; conditions: topical, single dose of 250 or 100 μg/15 μL/ear; statistically significant vs positive control
Experimental: Male CD1 mice (Iffa Credo, France) weighing ˜35-40 g were randomly grouped (n=8 in vehicle treated test group, dexamethasone treated control group as well as in groups treated with compounds to be assayed). Test compounds, dexamethasone as well as vehicle (Trans-phase Delivery System, containing benzyl alcohol 10%, acetone 40% and isopropanol 50%) (all from Kemika, Croatia), were administered topically to the internal surface of the left ear thirty minutes prior to administration of phorbol 12-myristate 13-acetate (PMA) (Alexis biochemicals, USA). Test compounds were administered at a single dose of 250 or 100 μg/15 μL/ear and dexamethasone at a single dose of 50 μg/15 μL/ear. Thirty minutes later, 0.01% PMA solution in acetone was applied topically to the same area of each animal in a volume of 12 μL/ear. During the treatment and challenge, animals were anaesthetized by using inhalation anaesthesia. Six hours after the challenge, animals were euthanized by asphyxiation in 100% CO2 atmosphere. For assessing the auricular oedema, 8 mm discs were cut out of left and right auricular pinna and weighed. The degree of oedema was calculated by subtracting the weight of 8 mm disc of the untreated ear from that of the treated contralateral ear.

Human recombinant Lck = biological target: T3, Human recombinant Lck (Homo sapiens, UniProt P06239); assay: Human protein tyrosine kinase, Lck, inhibition assay; format: biochemical; conditions: 10 μM
T3 construct: made in house; host or cells: Sf21 insect cells
Experimental: as §1
Human recombinant Lck is expressed in insect Sf21 expression system and purified. Substances are pre-incubated for 15 minutes at 25° C. in HEPES buffer containing ATP, pervanadate and magnesium. Substrate (poly Glu-Tyr) is added and incubated for 60 minutes at 25° C. Activity of the enzyme is measured using phosphotyrosine (p-Tyr) specific enzyme immunoassay and inhibition is calculated from the determination of the concentration of p-Tyr. Protein tyrosine kinase, Lck, is a protein tyrosine kinase which is abundantly expressed in T-lymphocytes and is essential for T-cell receptor signal transduction and thus activation of T-lymphocytes. Lck activation stimulates recruitment and activation of ZAP-70, which is essential for T-cell activation. Inhibitors of Lck act as immunoregulatory agents in various models. Lck is implicated in T-cell leukemias and inflammation.

IL-10 = assay: Inhibition of IL-10 production by ConA stimulated mouse splenocytes; format: cell-based; conditions: 25 μM
Experimental: as §2, §3, §4, §5

T2 sequence (P27361 whole entry): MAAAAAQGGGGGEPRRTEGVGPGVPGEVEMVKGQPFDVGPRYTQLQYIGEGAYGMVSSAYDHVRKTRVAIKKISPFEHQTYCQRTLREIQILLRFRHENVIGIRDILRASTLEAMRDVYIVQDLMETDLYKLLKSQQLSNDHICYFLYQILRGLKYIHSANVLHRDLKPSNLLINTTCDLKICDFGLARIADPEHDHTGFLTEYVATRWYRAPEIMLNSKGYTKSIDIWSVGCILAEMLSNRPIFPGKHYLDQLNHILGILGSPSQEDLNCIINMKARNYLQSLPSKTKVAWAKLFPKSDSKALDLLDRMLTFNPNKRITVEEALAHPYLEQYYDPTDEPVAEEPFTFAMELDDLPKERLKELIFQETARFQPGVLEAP
T3 sequence (P06239 whole entry): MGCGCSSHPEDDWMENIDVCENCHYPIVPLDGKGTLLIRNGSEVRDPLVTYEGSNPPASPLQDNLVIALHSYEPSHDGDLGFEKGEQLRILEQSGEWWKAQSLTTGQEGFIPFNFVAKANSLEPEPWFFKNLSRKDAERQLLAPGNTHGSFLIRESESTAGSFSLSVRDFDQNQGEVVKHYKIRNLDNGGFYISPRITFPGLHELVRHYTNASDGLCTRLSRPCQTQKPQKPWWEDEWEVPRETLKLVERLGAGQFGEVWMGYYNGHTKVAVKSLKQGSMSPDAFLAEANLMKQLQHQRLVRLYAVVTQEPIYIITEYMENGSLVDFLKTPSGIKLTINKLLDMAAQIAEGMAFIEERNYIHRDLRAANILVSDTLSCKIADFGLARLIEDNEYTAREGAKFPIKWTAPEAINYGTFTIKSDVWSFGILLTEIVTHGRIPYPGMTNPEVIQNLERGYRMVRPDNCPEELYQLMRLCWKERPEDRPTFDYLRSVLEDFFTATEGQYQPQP

Compound	inhibition of NK2 activity (Tachykinin NK2 receptor)	inhibition of human ERK1 activity (Human ERK1)	inhibition of IL-5 production (IL-5)	suppression of ear oedema (CD1 mice)	inhibition of human Lck activity (Human recombinant Lck)	inhibition of IL-10 production (IL-10)
CC(=O)C(c1c(O)c2cccc(C(C)C)c2oc1=O)c1c(O)c2cccc(C(C)C)c2oc1=O [Example 19]	significant inhibition	significantly inhibited	significantly inhibited	considered active	significantly inhibited	
CC(C)c1cccc2c(O)c(C(CO)c3c(O)c4cccc(C(C)C)c4oc3=O)c(=O)oc12 [Example 30]			significantly inhibited	considered active		significantly inhibited
CC(C)c1cccc2c(O)c(C(C(=O)OCCO)c3c(O)c4cccc(C(C)C)c4oc3=O)c(=O)oc12 [Example 50]	significant inhibition			considered active		

Reference: US20080153872A1, “Bis-(Coumarin) Compounds With Anti-Inflammatory Activity” (priority 2005, published 2008)
